Experimental data published in patent US20250100959A1, “METHOD FOR STORING REDUCED COENZYME Q10” (KANEKA CORPORATION, priority 2021, published 2025).

How the values were obtained:
[1] = Evaluation of oxidation stability: QH residual rate after storage, QH ratio by HPLC; type: physicochemical
Method: The weight ratio of reduced coenzyme Q10 to total coenzyme Q10 (namely, reduced coenzyme Q10/(oxidized coenzyme Q10+reduced coenzyme Q10)) is defined as “QH ratio”. The QH ratio was determined by the following HPLC analysis. For the evaluation of oxidation stability, a rate of the change in the QH ratio at the end of the evaluation from that at the beginning of the evaluation was defined as “QH residual rate”, and the QH residual rate determined by the following expression was used as a measure of oxidation stability.
QH residual rate (%)=100×QH ratio at the end of the evaluation/QH ratio at the beginning of the evaluation
Column: SYMMETRY C18 (manufactured by Waters); 250 mm (length), 4.6 mm (inner diameter)
Mobile phase: C2H5OH:CH3OH=4:3 (v:v)
Detection wavelength: 210 nm

[2] = Measurement of water activity (AquaLab Series 4TE); type: physicochemical; conditions: for water activity at 25° C.: composition or crystal as placed in the vial; for water activity in the packaged body: packaged body with controlled relative humidity
Method: The water activity was measured with AquaLab Series 4TE (METER Group Inc.). A sample having a volume of about 5 ml in a sample dish was placed in AquaLab Series 4TE, and the water activity at 25° C., was measured.

[3] = sealed aluminum laminate bag, packed at controlled relative humidity, stored at 25° C., 4 weeks
[4] = packaged body with controlled internal relative humidity, stored at 40° C., 2 weeks

| Compound | water activity at 25° C. [2] | QH residual rate (%) [1, 3] [%] | water activity in the packaged body [2] | QH residual rate (%) [1, 4] [%] | other results |
| --- | --- | --- | --- | --- | --- |
| COc1c(O)c(C)c(C/C=C(\C)CC/C=C(\C)CC/C=C(\C)CC/C=C(\C)CC/C=C(\C)CC/C=C(\C)CC/C=C(\C)CC/C=C(\C)CC/C=C(\C)CCC=C(C)C)c(O)c1OC [Comparative Example 1, reduced coenzyme Q10] | 0.17 |  |  |  | QH residual rate (%) ([1]; sealed glass vial, stored at 40° C., relative humidity 75%, 4 weeks): 87.5% |
| COc1c(O)c(C)c(C/C=C(\C)CC/C=C(\C)CC/C=C(\C)CC/C=C(\C)CC/C=C(\C)CC/C=C(\C)CC/C=C(\C)CC/C=C(\C)CC/C=C(\C)CCC=C(C)C)c(O)c1OC [Comparative Example 2, reduced coenzyme Q10] | 0.13 |  |  |  | QH residual rate (%) ([1]; sealed glass vial, stored at 25° C., relative humidity 60%, 4 weeks): 33.3% |
| COc1c(O)c(C)c(C/C=C(\C)CC/C=C(\C)CC/C=C(\C)CC/C=C(\C)CC/C=C(\C)CC/C=C(\C)CC/C=C(\C)CC/C=C(\C)CC/C=C(\C)CCC=C(C)C)c(O)c1OC [Example 3, reduced coenzyme Q10] |  | 92.3 | 0.50 |  |  |
| COc1c(O)c(C)c(C/C=C(\C)CC/C=C(\C)CC/C=C(\C)CC/C=C(\C)CC/C=C(\C)CC/C=C(\C)CC/C=C(\C)CC/C=C(\C)CC/C=C(\C)CCC=C(C)C)c(O)c1OC [Example 4, reduced coenzyme Q10] |  | 95.3 | 0.85 |  |  |
| co-crystal composed of QH and nicotinamide [Comparative Example 3] |  |  | 0.48 | 82.6 |  |
| co-crystal composed of QH and nicotinamide [Example 10] |  |  | 0.53 | 92.2 |  |
